# Test results reported in US20250114327A1, “COMPOSITION COMPRISING TETRACYCLIC COMPOUND” (CHUGAI SEIYAKU KABUSHIKI KAISHA, priority 2010, published 2025).
# Counter-ions that a name gives are not always drawn.
# Key:
# [1] = Small scale dissolution test in FaSSIF (Test example 2); conditions: 37° C., paddle 50 rpm
SMILES,Dissolved concentration after 10 min [µg/mL],Dissolved concentration after 240 min [µg/mL],"solubility of the Compound F6-20 hydrochloride salt crystal ([1]; 5 to 240 min, results in figures, stated in words)","initial solubility of the Compound F6-20 hydrochloride salt crystal ([1]; early phase, stated in words (FIG. 26))","solubility of the Compound F6-20 mesylate salt crystal ([1]; 5 to 240 min, versus Comparative example 3, stated in words)"
"CCc1cc2c(cc1N1CCN(C3COC3)CC1)C(C)(C)c1[nH]c3cc(C#N)ccc3c1C2=O [Comparative example 7, 9-Ethyl-6,6-dimethyl-8-(4-oxetan-3-yl-piperazin-1-yl)-11-oxo-6,11-dihydro-5H-benzo[b]carbazole-3-carbonitrile]",0.4 ± 0.2,0.4 ± 0.4,,,
"CC1(C)c2cc(C3CCN(C4COC4)CC3)ccc2C(=O)c2c1[nH]c1cc(C#N)ccc21 [Comparative example 4, 6,6-Dimethyl-8-(1-oxetan-3-yl-piperidin-4-yl)-11-oxo-6,11-dihydro-5H-benzo[b]carbazole-3-carbonitrile]",8.3 ± 1.5,3.8 ± 2.6,,,
"CCc1cc2c(cc1N1CCC(N3CCOCC3)CC1)C(C)(C)c1[nH]c3cc(C#N)ccc3c1C2=O [9-ethyl-6,6-dimethyl-8-(4-morpholin-4-yl-piperidin-1-yl)-11-oxo-6,11-dihydro-5H-benzo[b]carbazole-3-carbonitrile monohydrochloride salt]",,,improved by addition of SLS and poly(sodium 4-styrene sulfonate),improved by addition of polyoxyethylene (105) polyoxypropylene (5) glycol,
"CC1(C)c2cc(N3CCN(C4CC4)CC3)c(Br)cc2C(=O)c2c1[nH]c1cc(C#N)ccc21 [Comparative example 6, 9-Bromo-8-(4-cyclopropyl-piperazin-1-yl)-6,6-dimethyl-11-oxo-6,11-dihydro-5H-benzo[b]carbazole-3-carbonitrile]",18.2 ± 0.1,3.7 ± 0.5,,,
"CCc1cc2c(cc1N1CCC(N3CCOCC3)CC1)C(C)(C)c1[nH]c3cc(C#N)ccc3c1C2=O [Compound F6-20 mesylate salt, 9-Ethyl-6,6-dimethyl-8-(4-morpholin-4-yl-piperidin-1-yl)-11-oxo-6,11-dihydro-5H-benzo[b]carbazole-3-carbonitrile]",,,,,improved in accordance with the additive amount of sodium lauryl sulfate
"CC1(C)c2cc(N3CCN(C4COC4)CC3)c(Br)cc2C(=O)c2c1[nH]c1cc(C#N)ccc21 [Comparative example 5, 9-Bromo-6,6-dimethyl-8-(4-oxetan-3-yl-piperazin-1-yl)-11-oxo-6,11-dihydro-5H-benzo[b]carbazole-3-carbonitrile]",4.4 ± 0.4,4.8 ± 0.3,,,
